Measurements published in PubChem BioAssay AID2305 (GlaxoSmithKline (GSK), 2010).

tested on: P. falciparum 3D7 growth, pLDH absorbance; experiment: blood-stage malaria parasite growth potency – strain 3D7, dose response (AID 2305)

Question: How did the IC50 turn out when CCCc1cc(N2CCC(N(CC)CC)C2)nc(Nc2ccc(OC)cc2)n1 (stereo not drawn) was run?
Answer: 170 nM

Question: For O=C(/C=C/c1ccc(Cl)c(Cl)c1)NCC1CCN(Cc2ccc(O)cc2)CC1, which IC50 is on record?
Answer: 690 nM

Question: For COc1cccc(C(=O)NC(c2ccccc2OC)c2cc(Cl)c3cccnc3c2O)c1 (stereo not drawn), which IC50 is on record?
Answer: 1190 nM

Question: Which IC50 does the source give for COc1ccc(-c2nnc(Sc3ccc(C#N)c([N+](=O)[O-])c3)n2CCC(C)C)cc1 here?
Answer: 1110 nM

Question: Which IC50 does the source give for O=C(Nc1ccc(Cn2ncc(N3CCNCC3)c(Cl)c2=O)cc1)Nc1ccc(-c2ccccc2)cc1 here?
Answer: 590 nM

Question: Which IC50 does the source give for c1cc(-c2ccc(CN3CCN(c4ccncc4)CC3)cc2)cc(-c2nc3ccccc3[nH]2)c1 here?
Answer: 140 nM

Question: Which IC50 does the source give for N#Cc1c(N2CCN(c3ccc(F)cc3)CC2)nc(N)c2c(N)nc3c(c12)CC(=O)N3C1CC1 here?
Answer: 840 nM

Question: Which IC50 does the source give for C[C@@H](Oc1cc(-n2cnc3ccc(NC(=O)NC(C)(C)C)cc32)sc1C(N)=O)c1ccccc1Cl here?
Answer: 330 nM

Question: For Cc1cccc2c3c([nH]c12)C1(CCN(CCc2ccccc2)CC1)NC(C(=O)NCc1ccccc1)C3 (stereo not drawn), which IC50 is on record?
Answer: 1000 nM

Question: COc1ccc(-c2ccc(CNCc3ccc(F)cc3)cc2)cc1S(=O)(=O)NCCN1CCCC1 was tested. Which IC50 did it give?
Answer: 730 nM

Question: How did the IC50 turn out when N#Cc1ccc(CN2CCCN(Cc3cccc(NC(=O)c4ccc(Cl)c(Cl)c4)c3)CC2)cc1 was run?
Answer: 850 nM

Question: With N#Cc1cccc(CN2CCCN(Cc3ccc(C(=O)Nc4ccc(Cl)cc4)cc3)CC2)c1 as the compound, how does the IC50 read?
Answer: 880 nM

Question: CCn1cc(-c2cc(C(=O)Nc3ccc(OC)cc3C)c3ccccc3n2)c(C)n1 was tested. Which IC50 did it give?
Answer: 980 nM

Question: For Oc1ccccc1N1CCN(c2ccc(-c3nc4ccccc4[nH]3)cn2)CC1, which IC50 is on record?
Answer: 1130 nM

Question: For NC(=O)c1ccc(C(=O)Nc2cccc(-c3ccc(-c4nc5ccc(C(F)(F)F)cc5[nH]4)cc3)c2)cc1, which IC50 is on record?
Answer: 510 nM

Question: With N#Cc1ccc2[nH]cc(CN3CCC4(CC3)CN(CCNCc3ccccc3)C(=O)CO4)c2c1 as the compound, how does the IC50 read?
Answer: 760 nM

Question: Which IC50 does the source give for CCCCn1c(N)c(N(Cc2ccco2)C(=O)C=Cc2cc(OC)c3c(c2)OCCO3)c(=O)[nH]c1=O here?
Answer: 950 nM

Question: Which IC50 does the source give for N#Cc1ccc(NC(=O)c2ccc(Cc3ccc4c(c3)CCN(C3CCC3)CC4)cn2)cc1 here?
Answer: 1120 nM

Question: For COc1ccc(CN(C)CCCCc2ccc(NC(=O)COc3cccc4sc5ccccc5c(=O)c34)cc2)cc1OC, which IC50 is on record?
Answer: 810 nM

Question: How did the IC50 turn out when COc1cccc(-c2ccc(C(=O)NC3CCN(Cc4ccc(N(C)C)cc4)CC3)s2)c1 was run?
Answer: 1390 nM

Question: Which IC50 does the source give for O=C1COC2(CN1C1CCN(Cc3ccc(O)cc3Cl)C1)c1ccccc1-c1ccccc12 (stereo not drawn) here?
Answer: 1330 nM

Question: With COC(=O)[C@@H](NC(=O)[C@H](CC(C)C)Nc1ccc(C#N)c2ccccc12)c1ccc(O)cc1 as the compound, how does the IC50 read?
Answer: 790 nM

Question: c1ccc(CNCc2cccc(-c3ccc(-c4nc5ccccc5[nH]4)cc3)c2)cc1 was tested. Which IC50 did it give?
Answer: 820 nM

Question: O=C(Cn1cnc2c(nnn2Cc2ccccc2F)c1=O)Nc1ccc2c(c1)OCCO2 was tested. Which IC50 did it give?
Answer: 950 nM

Question: With C[C@H](Cc1ccc(C(=O)OC(c2ccccc2)c2ccccc2)cc1)NC[C@H](O)c1ccccc1 as the compound, how does the IC50 read?
Answer: 180 nM

Question: Which IC50 does the source give for COc1ccccc1CCNc1nc(C)cc(NCCC(=O)NCCOc2ccccc2)n1 here?
Answer: 1370 nM

Question: How did the IC50 turn out when NCC(=O)Nc1cccc(Nc2nccc(-c3c(-c4cccc(NC(=O)c5ccccc5)c4)nn4ccccc34)n2)c1 was run?
Answer: 430 nM

Question: NC1=NC(c2ccccc2)(c2ccccc2)C(=O)N1C1CCCCC1 was tested. Which IC50 did it give?
Answer: 660 nM

Question: For CCOc1cc(NC(=O)Nc2ccnc3ccccc23)cc(OC)c1, which IC50 is on record?
Answer: 870 nM

Question: Oc1cccc(Nc2ccnc3cc(-c4ccncc4)ccc23)c1 was tested. Which IC50 did it give?
Answer: 1050 nM

Question: How did the IC50 turn out when CCCNCc1ccc(-c2ccc(CN(CC3CCCO3)C(=O)COc3ccccc3Cl)cc2)nc1 (stereo not drawn) was run?
Answer: 1180 nM

Question: How did the IC50 turn out when CC(C)N1CCN(C(=O)c2ccc(CNCCCN3CCN(c4cccc(Cl)c4Cl)CC3)s2)CC1 was run?
Answer: 720 nM

Question: How did the IC50 turn out when CN(C)CCN(C)Cc1cccc(-c2cccc(NC(=O)c3cccc(C#N)c3)c2)c1 was run?
Answer: 870 nM

Question: Which IC50 does the source give for Cc1cc(O)c(CNC2CCCCC2)cc1C here?
Answer: 1050 nM

Question: With OC(CNCc1ccccc1Oc1ccccc1)c1cc(Br)cs1 (stereo not drawn) as the compound, how does the IC50 read?
Answer: 1110 nM

Question: Which IC50 does the source give for C[C@@H](N=C(Nc1ccc(C#N)cc1O)Nc1ccccc1Cl)c1ccc(Br)cc1 here?
Answer: 750 nM

Question: For OCCN1CCN(c2ccc(Nc3ccnc4cc5ccccc5cc34)cc2)CC1, which IC50 is on record?
Answer: 40 nM

Question: With CC(=O)Nc1ncc(C(=O)Nc2cccc(-c3ccc(-c4nc5ccc(F)cc5[nH]4)cc3)c2)s1 as the compound, how does the IC50 read?
Answer: 620 nM

Question: Which IC50 does the source give for CCCN(Cc1nnc(-c2ccco2)o1)C(=O)C1CCCN(C(=O)c2ccc(Cl)cc2)C1 (stereo not drawn) here?
Answer: 520 nM

Question: COc1ccc2nccc([C@@H](O)CN3CCC(NCc4nc5ccccc5s4)CC3)c2c1 was tested. Which IC50 did it give?
Answer: 930 nM

Question: How did the IC50 turn out when COc1cc(NC(=O)N2CCc3ccc(OCCC4CCCN4C)cc32)cc(C(F)(F)F)c1 (stereo not drawn) was run?
Answer: 710 nM

Question: For Fc1ccccc1C=NNc1ccnc2ccc(C(F)(F)F)cc12, which IC50 is on record?
Answer: 870 nM

Question: For COc1ccc(Cl)cc1N1CCN(CCCNC(=O)c2ccc(-c3nc4cc(Cl)c(F)cc4[nH]3)c(F)c2)CC1, which IC50 is on record?
Answer: 1110 nM

Question: CN(Cc1ccc(-c2ccc(C(F)(F)F)cc2)cc1)C(=O)Cn1c(CCc2cccc(F)c2F)nc(=O)c2ccc(N3CCN(CCN4CCCCC4)CC3)nc21 was tested. Which IC50 did it give?
Answer: 760 nM

Question: How did the IC50 turn out when COC(=O)c1ccc(C2OC3(C(=O)c4ccccc4C3=O)C(OC)=C2Cl)cc1C(C)=O (stereo not drawn) was run?
Answer: 550 nM

Question: For CCOc1ccc(C(=O)Nc2ccc(-c3nc4ccccc4[nH]3)cc2)cc1[N+](=O)[O-], which IC50 is on record?
Answer: 590 nM

Question: With Cc1[nH]c(C)c(-c2ccc(-c3ccc(Cl)cc3)nc2)c(=O)c1Cl as the compound, how does the IC50 read?
Answer: 110 nM

Question: CCCN(Cc1ccc(OCC)cc1)Cc1cc(=O)c2cc(Cl)ccc2[nH]1 was tested. Which IC50 did it give?
Answer: 1260 nM
